Laboratory results: patent US5459146A, “4-substituted pyrazoloquinoline derivatives” (Schering Corporation, priority 1993, dated 1995)
Converted amounts (≈) assume the structure as drawn.

Test system: HSV-2
Test: not given
Settings: U.S. Pat. No. 4,757,088; cited from earlier work
In the case of `CCN(CC)CC(=O)Nc1c(C)cccc1C` [lidocaine, 2-(diethylamino)-N-(2,6-dimethylphenyl)acetamide], the “antiviral activity in cell culture against HSV-2” value is listed as “antiviral agent”.

Test system: HSV
Test: Plaque Reduction Assay for HSV Antiviral Activity (Plaque)
Assay type: cell-based
Settings: not given
Experimental: (§1) The compound toxicity assay (3H-LEU), Plaque Reduction Assay for HSV Antiviral Activity (Plaque), and Transient Expression Assay for Effects Against HSV Early Gene Expression (β Galactosidase Assay or βgal) were carried out as set forth in U.S. Pat. No. 5,175,151 which is hereby incorporated by reference.
With `COc1ccc2nc3[nH]nc(C)c3c(OCCN(C)C)c2c1` [O] the IC50 was 0.7 µg/mL (≈ 2.33 µM). With `COc1ccc2nc3c(c(C)nn3CCCO)c(OC)c2c1` [P] the IC50 was greater than 20 µg/mL. `COc1ccc2nc3[nH]nc(C)c3c(OCCN3CCOCC3)c2c1` [Q] showed an IC50 of 20 µg/mL (≈ 58.4 µM). `C=CCOc1ccc2nc3c(c(C)nn3CC=C)c(O)c2c1` [R] showed an IC50 of 20 µg/mL (≈ 67.7 µM).

Test system: HSV-1
Test: not given
Settings: U.S. Pat. No. 4,757,088; cited from earlier work
In the case of `CCN(CC)CC(=O)Nc1c(C)cccc1C` [lidocaine, 2-(diethylamino)-N-(2,6-dimethylphenyl)acetamide], the “antiviral activity in cell culture against HSV-1” value is listed as “antiviral agent”.

Test system: HSV Early Gene Expression
Test: Transient Expression Assay for Effects Against HSV Early Gene Expression (β Galactosidase Assay or βgal)
Assay type: cell-based
Settings: read-out: βgal
Experimental: as §1
With `CC(=O)Oc1ccc2nc3[nH]nc(C)c3c(OC(C)=O)c2c1` [A] the IC50 was 3 µg/mL (≈ 10 µM). Molecule `CC(=O)Oc1ccc2nc3c(c(C)nn3C(C)=O)c(O)c2c1` [B] has an IC50 of 8 µg/mL (≈ 26.7 µM). With `CCCCC(=O)Oc1ccc2nc3[nH]nc(C)c3c(OC(=O)CCCC)c2c1` [C] the IC50 was 5 µg/mL (≈ 13 µM). In the case of `CCC(=O)Oc1ccc2nc3[nH]nc(C)c3c(OC(=O)CC)c2c1` [D], the IC50 is reported as 11 µg/mL (≈ 33.6 µM). For `COc1ccc2nc3c(c(C)nn3C(C)=O)c(O)c2c1` [E], the IC50 was 3 µg/mL (≈ 11.1 µM). Molecule `CC(=O)n1nc(C)c2c(O)c3cc(Cl)ccc3nc21` [F] has an IC50 of 9 µg/mL (≈ 32.6 µM). With `CC(=O)Oc1c2cc(F)ccc2nc2[nH]nc(C)c12` [G] the IC50 was 3 µg/mL (≈ 11.6 µM). In the case of `CC(=O)n1nc(C)c2c(O)c3cc(F)ccc3nc21` [H], the IC50 is reported as 2 µg/mL (≈ 7.71 µM). With `CCCCCCCn1nc(C)c2c(OC(C)=O)c3cc(OC)ccc3nc21` [I] the IC50 was 2.8 µg/mL (≈ 7.58 µM). `CC(=O)n1nc(C)c2c(O)c3cc(C)ccc3nc21` [J] showed an IC50 of 9 µg/mL (≈ 35.3 µM). In the case of `COc1cc(C)c2[nH]c3c(c(C)nn3C(C)=O)c(=O)c2c1` [K], the IC50 is reported as 5 µg/mL (≈ 17.5 µM). In the case of `CCCCCCCn1nc(C)c2c(=O)c3cc(C)ccc3[nH]c21` [L], the IC50 is reported as 3 µg/mL (≈ 9.63 µM). In the case of `CCCCCCCn1nc(C)c2c(OC(C)=O)c3cc(C)ccc3nc21` [M], the IC50 is reported as 3 µg/mL (≈ 8.49 µM). With `COc1cccc2c(O)c3c(C)nn(C(C)=O)c3nc12` [N] the IC50 was 3 µg/mL (≈ 11.1 µM). For `COc1ccc2nc3[nH]nc(C)c3c(OCCN(C)C)c2c1` [O], the IC50 was 1.4 µg/mL (≈ 4.66 µM). Work on `COc1ccc2nc3c(c(C)nn3CCCO)c(OC)c2c1` [P] yielded an IC50 of 7.2 µg/mL (≈ 23.9 µM). `COc1ccc2nc3[nH]nc(C)c3c(OCCN3CCOCC3)c2c1` [Q] showed an IC50 of 20 µg/mL (≈ 58.4 µM). With `C=CCOc1ccc2nc3c(c(C)nn3CC=C)c(O)c2c1` [R] the IC50 was 20 µg/mL (≈ 67.7 µM).

Test system: herpes virus
Test: not given
Settings: U.S. Pat. No. 4,757,088; cited from earlier work
In the case of `CCN(CC)CC(=O)Nc1c(C)cccc1C` [lidocaine, 2-(diethylamino)-N-(2,6-dimethylphenyl)acetamide], the “treatment of herpes virus infections of mammals” value is listed as “able to treat herpes virus infections of mammals”.

Test system: HSV-1 and HSV-2
Test: not given
Settings: added to lidocaine or lidocaine hydrochloride; Haines et al.; cited from earlier work
In the case of `CC(C)(CO)[C@@H](O)C(=O)NCCCO` [dexpanthenol], the “antiviral activity of lidocaine or lidocaine hydrochloride on addition of the substance” value is given as “significantly enhances”. For `CC(C)(CO)[C@@H](O)C(=O)NCCC(=O)O` [panthothenic acid], the “antiviral activity of lidocaine or lidocaine hydrochloride on addition of the substance” value is listed as “significantly enhances”.

Test system: HSV
Test: not given
Settings: Haines et al.; cited from earlier work
In the case of `CCN(CC)CC(=O)Nc1c(C)cccc1C` [lidocaine, 2-(diethylamino)-N-(2,6-dimethylphenyl)acetamide], the “treatment of HSV oral and genital lesions in humans” value is given as “particularly effective”.

Test system: not listed separately
Test: compound toxicity assay (3H-LEU)
Assay type: cell-based
Settings: not given
Experimental: as §1
For `CC(=O)Oc1ccc2nc3[nH]nc(C)c3c(OC(C)=O)c2c1` [A], the CC50 was 14 µg/mL (≈ 46.8 µM). With `CC(=O)Oc1ccc2nc3c(c(C)nn3C(C)=O)c(O)c2c1` [B] the CC50 was 15 µg/mL (≈ 50.1 µM). With `CCCCC(=O)Oc1ccc2nc3[nH]nc(C)c3c(OC(=O)CCCC)c2c1` [C] the CC50 was 5 µg/mL (≈ 13 µM). `COc1ccc2nc3c(c(C)nn3C(C)=O)c(O)c2c1` [E] gave a CC50 of 23 µg/mL (≈ 84.8 µM). Work on `CC(=O)n1nc(C)c2c(O)c3cc(Cl)ccc3nc21` [F] yielded a CC50 of 37 µg/mL (≈ 134 µM). With `CC(=O)Oc1c2cc(F)ccc2nc2[nH]nc(C)c12` [G] the CC50 was 43 µg/mL (≈ 166 µM). In the case of `CC(=O)n1nc(C)c2c(O)c3cc(F)ccc3nc21` [H], the CC50 is reported as 32 µg/mL (≈ 123 µM). In the case of `CCCCCCCn1nc(C)c2c(OC(C)=O)c3cc(OC)ccc3nc21` [I], the CC50 is reported as less than 1 µg/mL. With `CC(=O)n1nc(C)c2c(O)c3cc(C)ccc3nc21` [J] the CC50 was 100 µg/mL (≈ 392 µM). For `COc1cc(C)c2[nH]c3c(c(C)nn3C(C)=O)c(=O)c2c1` [K], the CC50 was greater than 100 µg/mL. `CCCCCCCn1nc(C)c2c(=O)c3cc(C)ccc3[nH]c21` [L] showed a CC50 of 3.4 µg/mL (≈ 10.9 µM). Work on `CCCCCCCn1nc(C)c2c(OC(C)=O)c3cc(C)ccc3nc21` [M] yielded a CC50 of less than 1 µg/mL. With `COc1cccc2c(O)c3c(C)nn(C(C)=O)c3nc12` [N] the CC50 was 100 µg/mL (≈ 369 µM). For `COc1ccc2nc3[nH]nc(C)c3c(OCCN(C)C)c2c1` [O], the CC50 was 5.4 µg/mL (≈ 18 µM).
